Reference: patent publication US10208019B2, “GLP-1 receptor agonists and uses thereof” (Pfizer Inc., priority 2016, dated 2019)
Where two headings read alike, the source gives them in different places.

What was measured:
human GLP-1R [1] = molecular target: human GLP-1R (Homo sapiens, UniProt P43220, G168S); assay: CHO GLP-1R Clone H6—Assay 1: HTRF cAMP cell-based functional agonist assay (high GLP-1R density); conditions: for EC50: CHO GLP-1R Clone H6, cAMP HTRF, geometric mean
Procedure: GLP-1R-mediated agonist activity was determined with a cell-based functional assay utilizing an HTRF (Homogeneous Time-Resolved Fluorescence) cAMP detection kit (cAMP HI Range Assay Kit; CisBio cat #62AM6PEJ) that measures cAMP levels in the cell. The method is a competitive immunoassay between native cAMP produced by the cells and exogenous cAMP labeled with the dye d2. The tracer binding is visualized by a mAb anti-cAMP labeled with Cryptate. The specific signal (i.e. energy transfer) is inversely proportional to the concentration of cAMP in either standard or experimental sample.
The human GLP-1R coding sequence (NCBI Reference Sequence NP_002053.3, including naturally-occurring variant Gly168Ser) was subcloned into pcDNA3 (Invitrogen) and a cell line stably expressing the receptor was isolated (designated Clone H6).
Cells were removed from cryopreservation, re-suspended in 40 mL of Dulbecco's Phosphate Buffered Saline (DPBS-Lonza Cat #17-512Q) and centrifuged at 800×g for 5 min at 22° C. The cell pellet was then re-suspended in 10 mL of growth medium [DMEM/F12 1:1 Mixture with HEPES, L-Gln, 500 mL (DMEM/F12 Lonza Cat #12-719F), 10% heat inactivated fetal bovine serum (Gibco Cat #16140-071), 5 mL of 100× Pen-Strep (Gibco Cat #15140-122), 5 mL of 100× L-Glutamine (Gibco Cat #25030-081) and 500 μg/mL Geneticin (G418) (Invitrogen #10131035)]. A 1 mL sample of the cell suspension in growth media was counted on a Becton Dickinson ViCell to determine cell viability and cell count per mL. The remaining cell suspension was then adjusted with growth media to deliver 2000 viable cells per well using a Matrix Combi Multidrop reagent dispenser, and the cells were dispensed into a white 384 well tissue culture treated assay plate (Corning 3570). The assay plate was then incubated for 48 hours at 37° C. in a humidified environment in 5% carbon dioxide.
Varying concentrations of each compound to be tested (in DMSO) were diluted in assay buffer (HBSS with Calcium/Magnesium (Lonza/BioWhittaker cat #10-527F)/0.1% BSA (Sigma Aldrich cat #A7409-1L)/20 mM HEPES (Lonza/BioWhiftaker cat #17-737E) containing 100 μM 3-isobutyl-1-methylxanthin (IBMX; Sigma cat #15879). The final DMSO concentration is 1%.
After 48 hours, the growth media was removed from the assay plate wells, and the cells were treated with 20 μL of the serially diluted compound in assay buffer for 30 minutes at 37° C. in a humidified environment in 5% carbon dioxide. Following the 30 minute incubation, 10 μL of labeled d2 cAMP and 10 μL of anti-cAMP antibody (both diluted 1:20 in cell lysis buffer; as described in the manufacturer's assay protocol) were added to each well of the assay plate. The plates were then incubated at room temperature and after 60 minutes, changes in the HTRF signal were read with an Envision 2104 multi-label plate reader using excitation of 330 nm and emissions of 615 and 665 nm. Raw data were converted to nM cAMP by interpolation from a cAMP standard curve (as described in the manufacturer's assay protocol) and the percent effect was determined relative to a saturating concentration of the full agonist GLP-17-36 (1 μM) included on each plate. EC50 determinations were made from agonist dose-response curves analyzed with a curve fitting program using a 4-parameter logistic dose response equation.

human GLP-1R [2] = molecular target: human GLP-1R (Homo sapiens (Human), UniProt P43220, L260F); assay: CHO GLP-1R Clone C6—Assay 2: HTRF cAMP cell-based functional agonist assay (low GLP-1R density); conditions: for EC50: CHO GLP-1R Clone C6, cAMP HTRF, geometric mean; for Emax: read-out: Assay 2 Emax (%)
Chain of human GLP-1R (Homo sapiens (Human), UniProt P43220, L260F) (P43220 24-463 L260F): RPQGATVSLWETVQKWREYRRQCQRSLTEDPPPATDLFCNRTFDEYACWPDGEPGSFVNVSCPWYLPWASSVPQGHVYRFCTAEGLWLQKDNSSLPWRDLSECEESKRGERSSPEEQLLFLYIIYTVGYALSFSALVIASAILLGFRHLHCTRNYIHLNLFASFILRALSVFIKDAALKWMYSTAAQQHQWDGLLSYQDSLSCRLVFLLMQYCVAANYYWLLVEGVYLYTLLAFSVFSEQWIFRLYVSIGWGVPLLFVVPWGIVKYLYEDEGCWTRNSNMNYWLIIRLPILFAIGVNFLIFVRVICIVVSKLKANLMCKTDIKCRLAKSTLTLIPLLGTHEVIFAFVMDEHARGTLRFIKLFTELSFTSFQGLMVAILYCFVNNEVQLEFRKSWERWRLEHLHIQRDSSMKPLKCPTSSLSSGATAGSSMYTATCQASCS

[3] = read-out: Assay 1 Emax (%), CHO GLP-1R Clone H6, relative to saturating concentration of full agonist GLP-1 (1 μM), arithmetic mean
[4] = CHO GLP-1R Clone C6, relative to saturating concentration of full agonist GLP-1 (1 μM), arithmetic mean

Chain of human GLP-1R (Homo sapiens, UniProt P43220, G168S) (P43220 24-463 G168S limits assumed): as the sequence (P43220 24-463 L260F) above, with G145S, F237L counted along it

SMILES | EC50 (human GLP-1R [1]; read-out: Assay 1 EC50) [nM] | Emax (human GLP-1R [1]; [3]) [%] | EC50 (human GLP-1R [2]) [nM] | Emax (human GLP-1R [2]; [4]) [%] | Assay 2 Emax (%) (human GLP-1R [2]; [4]) | EC50 (human GLP-1R [1]; Assay 1 EC50 (nM)) [nM] | Emax (human GLP-1R [1]; read-out: Assay 1 Emax (%)) [%] | Emax (human GLP-1R [2]) [%]
C[C@H]1CN(c2cccc(OCc3ccc(Cl)cc3F)n2)CCN1Cc1nc2ccc(C(=O)O)cc2n1Cc1cnnn1C [Example 10A-22] | 5.7 | 67 | 100 | 79 | – | – | – | –
O=C(O)c1ccc2nc(CN3CCC(c4cccc(OCc5ccc(Cl)cc5F)n4)CC3)n(CCn3cccn3)c2c1 [Example 11A-28, 2-[(4-{6-[(4-chloro-2-fluorobenzyl)oxy]pyridin-2-yl}piperidin-1-yl)methyl]-1-[2-(1H-pyrazol-1-yl)ethyl]-1H-benzimidazole-6-carboxylic acid] | 54 | 77 | 1200 | 82 | – | – | – | –
C[C@H]1CN(c2cccc(OCc3ccc(C#N)cc3F)n2)CCN1Cc1nc2ccc(C(=O)O)cc2n1C[C@H]1CCOC1 [Example 10A-59] | 4.7 | 71 | 84 | 83 | – | – | – | –
O=C(O)c1ccc2nc(CN3CCN(c4cccc(OCc5ccc(Cl)cc5F)n4)CC3)n(C[C@H]3CCO3)c2c1 [Example 10A-48] | 8.6 | 64 | 140 | 76 | – | – | – | –
COCCn1c(CN2CCC(c3cccc(OCc4cc(F)c(Cl)cc4F)n3)CC2)nc2ccc(C(=O)O)cc21 [Example 8A-03, 2-((4-(6-((4-chloro-2,5-difluorobenzyl)oxy)pyridin-2-yl)piperidin-1-yl)methyl)-1-(2-methoxyethyl)-1H-benzo[d]imidazole-6-carboxylic acid] | 18 | 84 | 350 | 77 | – | – | – | –
N#Cc1ccc(COc2cccc(C3CCN(Cc4nc5ccc(C(=O)O)cc5n4CC4CCCO4)CC3)n2)cc1 (single isomer, unassigned; enantiomer 1) [Example 14A-01, 2-[(4-{6-[(4-cyanobenzyl)oxy]pyridin-2-yl}piperidin-1-yl)methyl]-1-(tetrahydrofuran-2-ylmethyl)-1H-benzimidazole-6-carboxylic acid,enantiomer 1] | 5.6 | – | 200 | – | 89 | – | – | –
COCCn1c(CN2CCN(c3cccc(OCc4ccc(Cl)cc4F)n3)[C@H](C)C2)nc2ccc(C(=O)O)cc21 [Example 1A-14, 2-{[(3R)-4-{6-[(4-chloro-2-fluorobenzyl)oxy]pyridin-2-yl}-3-methylpiperazin-1-yl]methyl}-1-(2-methoxyethyl)-1H-benzimidazole-6-carboxylic acid] | 47 | 71 | 1600 | 81 | – | – | – | –
C[C@H]1CN(c2cccc(OCc3ccc(C#N)cc3F)n2)CCN1Cc1nc2ccc(C(=O)O)nc2n1C[C@@H]1CCO1 [Example 10A-09, 2-{[(2S)-4-{6-[(4-cyano-2-fluorobenzyl)oxy]pyridin-2-yl}-2-methylpiperazin-1-yl]methyl}-3-[(2S)-oxetan-2-ylmethyl]-3H-imidazo[4,5-b]pyridine-5-carboxylic acid] | 0.99 | 95 | 10 | 120 | – | – | – | –
O=C(O)c1ccc2nc(CN3CCN(c4cccc(OCc5ccc(Cl)cc5F)n4)CC3)n(C[C@@H]3CCO3)c2c1 [Example 10A-08, 2-[(4-{6-[(4-chloro-2-fluorobenzyl)oxy]pyridin-2-yl}piperazin-1-yl)methyl]-1-[(2S)-oxetan-2-ylmethyl]-1H-benzimidazole-6-carboxylic acid] | 0.55 | 77 | 9.2 | 94 | – | – | – | –
N#Cc1ccc(COc2cccc(N3CCN(Cc4nc5ccc(C(=O)O)cc5n4C[C@@H]4CCO4)CC3)n2)c(F)c1 [Example 5A-01, 2-[(4-{6-[(4-Cyano-2-fluorobenzyl)oxy]pyridin-2-yl}piperazin-1-yl)methyl]-1-[(2S)-oxetan-2-ylmethyl]-1H-benzimidazole-6-carboxylic acid] | 0.34 | 78 | 7.4 | 94 | – | – | – | –
O=C(O)c1ccc2nc(CN3CCC(c4cccc(OCc5ccc(Cl)cc5F)n4)CC3)n(C[C@H]3CCO3)c2n1 [Example 2A-22, 2-[(4-{6-[(4-chloro-2-fluorobenzyl)oxy]pyridin-2-yl}piperidin-1-yl)methyl]-3-[(2R)-oxetan-2-ylmethyl]-3H-imidazo[4,5-b]pyridine-5-carboxylic acid] | 14 | 72 | 190 | 83 | – | – | – | –
C[C@H]1CN(c2cccc(OCc3ccc(C#N)cc3F)n2)CCN1Cc1nc2ccc(C(=O)O)cc2n1C[C@@H]1CCO1 [Example 10A-47, 2-{[(2S)-4-{6-[(4-cyano-2-fluorobenzyl)oxy]pyridin-2-yl}-2-methylpiperazin-1-yl]methyl}-1-[(2S)-oxetan-2-ylmethyl]-1H-benzimidazole-6-carboxylic acid] | 0.3 | 80 | 4.4 | 95 | – | – | – | –
C[C@H]1CN(c2cccc(OCc3ccc(C#N)cc3F)n2)CCN1Cc1nc2ccc(C(=O)O)cc2n1Cc1cnnn1C [Example 10A-23] | 38 | 76 | 760 | 91 | – | – | – | –
COCCn1c(CN2CC[C@@H](c3cccc(OCc4ccc(Cl)cc4F)n3)[C@H](O)C2)nc2ccc(C(=O)O)cc21 (racemic) [Example 1A-23, rac-2-{[(3S,4S)-4-{6-[(4-chloro-2-fluorobenzyl)oxy]pyridin-2-yl}-3-hydroxypiperidin-1-yl]methyl}-1-(2-methoxyethyl)-1H-benzimidazole-6-carboxylic acid] | – | 83 | 1000 | 98 | – | 50 | – | –
Cn1c(CN2CCC(c3cccc(OCc4ccc(Cl)cc4F)n3)CC2)nc2cc(Cl)c(C(=O)O)cc21 [Example 2A-13, 5-chloro-2-[(4-{6-[(4-chloro-2-fluorobenzyl)oxy]pyridin-2-yl}piperidin-1-yl)methyl]-1-methyl-1H-benzimidazole-6-carboxylic acid] | 770 | 78 | > 15000 | 100 | – | – | – | –
N#Cc1ccc(COc2cccc(C3CCN(Cc4nc5ccc(C(=O)O)cc5n4Cc4ccon4)CC3)n2)c(F)c1 [Example 10A-65, 2-[(4-{6-[(4-cyano-2-fluorobenzyl)oxy]pyridin-2-yl}piperidin-1-yl)methyl]-1-(1,2-oxazol-3-ylmethyl)-1H-benzimidazole-6-carboxylic acid] | 1.6 | 84 | 35 | 78 | – | – | – | –
O=C(O)c1ccc2nc(CN3CCC(c4cccc(OCc5ccc(Cl)cc5F)n4)CC3)n([C@@H]3CCOC3)c2c1 [Example 10A-60] | 31 | 81 | 460 | 66 | – | – | – | –
O=C(O)c1ccc2nc(CN3CCC(c4cccc(OCc5ccc(Cl)cc5F)n4)CC3)n(CCN3CCCC3=O)c2c1 [Example 10A-12] | 110 | 68 | 4400 | 110 | – | – | – | –
Cn1c(CN2CCC(c3cccc(OCc4ccc(C#N)cc4)n3)CC2)nc2ccc(C(=O)O)cc21 [Example 9A-15, 2-[(4-{6-[(4-cyanobenzyl)oxy]pyridin-2-yl}piperidin-1-yl)methyl]-1-methyl-1H-benzimidazole-6-carboxylic acid] | 180 | 78 | 3500 | 90 | – | – | – | –
COCCn1c(CN2CC[C@@H](c3cccc(OCc4ccc(Cl)cc4F)n3)[C@H](C)C2)nc2ccc(C(=O)O)cc21 (racemic) [Example 1A-26, rac-2-{[(3S,4R)-4-{6-[(4-chloro-2-fluorobenzyl)oxy]pyridin-2-yl}-3-methylpiperidin-1-yl]methyl}-1-(2-methoxyethyl)-1H-benzimidazole-6-carboxylic acid] | – | 80 | 1800 | 85 | – | 70 | – | –
CC(F)(F)Cn1c(CN2CCC(c3cccc(OCc4ccc(Cl)cc4F)n3)CC2)nc2ccc(C(=O)O)cc21 [Example 11A-27, 2-[(4-{6-[(4-chloro-2-fluorobenzyl)oxy]pyridin-2-yl}piperidin-1-yl)methyl]-1-(2,2-difluoropropyl)-1H-benzimidazole-6-carboxylic acid] | 44 | 72 | 490 | 98 | – | – | – | –
COCCn1c(CN2CCN(c3cccc(OCc4ccc(C#N)cc4)n3)C[C@@H]2C)nc2ccc(C(=O)O)cc21 [Example 12A-08, 2-{[(2S)-4-{6-[(4-cyanobenzyl)oxy]pyridin-2-yl}-2-methylpiperazin-1-yl]methyl}-1-(2-methoxyethyl)-1H-benzimidazole-6-carboxylic acid] | 6.1 | 89 | 150 | 97 | – | – | – | –
O=C(O)c1ccc2nc(CN3CCC(c4cccc(OCc5ccc(Cl)cc5F)n4)CC3)n(Cc3ccno3)c2c1 [Example 10A-64, 2-[(4-{6-[(4-chloro-2-fluorobenzyl)oxy]pyridin-2-yl}piperidin-1-yl)methyl]-1-(1,2-oxazol-5-ylmethyl)-1H-benzimidazole-6-carboxylic acid] | 2 | 82 | 32 | 79 | – | – | – | –
O=C(O)c1ccc2nc(CN3CCC(c4cccc(OCc5ccc(Cl)cc5F)n4)CC3)n(CCN3CCOC3=O)c2c1 [Example 11A-20] | 15 | – | 270 | – | – | – | – | –
N#Cc1ccc(COc2cccc(C3CCN(Cc4nc5ccc(C(=O)O)cc5n4C[C@@H]4CCO4)CC3)n2)c(F)c1 [Example 4A-01, 2-[(4-{6-[(4-cyano-2-fluorobenzyl)oxy]pyridin-2-yl}piperidin-1-yl)methyl]-1-[(2S)-oxetan-2-ylmethyl]-1H-benzimidazole-6-carboxylic acid] | – | – | – | – | – | – | 79 | 100
